Reference: patent US8791104B2, “1,4-benzodiazepine-2,5-diones with therapeutic properties” (The Regents of the University of Michigan, priority 2005, dated 2014)

Experiments:
[1] = test system: ATP synthesis; experiment: Cellular ATP synthesis in the presence of compounds; format: cell-based; conditions: compounds exposed to cells (FIG. 6)
Experimental: The following four compounds were exposed to cells, and ATP synthesis measured: […]

[2] = test system: mitochondrial F1F0-ATPase; conditions: cited from earlier work
[3] = test system: animal models of lupus; conditions: in vivo; cited from earlier work
[4] = target: T1, oligomycin sensitivity conferring protein (OSCP) component of the mitochondrial F1F0-ATPase (Homo sapiens, UniProt P48047); conditions: cited from earlier work
T1 sequence (P48047 24-213): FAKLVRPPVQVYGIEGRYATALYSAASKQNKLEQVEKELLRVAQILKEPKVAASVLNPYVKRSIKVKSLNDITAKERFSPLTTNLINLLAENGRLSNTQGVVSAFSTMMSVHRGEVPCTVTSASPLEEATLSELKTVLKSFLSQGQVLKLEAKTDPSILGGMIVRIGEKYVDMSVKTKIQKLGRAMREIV

SMILES | inhibition of ATP synthesis [1] | inhibition of the F1F0-ATPase [2] | activity in animal models of lupus [3] | binding to OSCP [4]
CN1C(=O)C(c2ccccc2)NC(c2ccc(O)cc2)c2cc(Cl)ccc21 (stereo not shown) | did inhibit ATP synthesis |  |  | 
CN1C(=O)C(Cc2ccc3ccccc3c2)N=C(c2ccc(O)cc2)c2cc(Cl)ccc21 (stereo not shown) [Bz-423] |  | inhibits the enzyme | potent activity in animal models of lupus | binds to the oligomycin sensitivity conferring protein (OSCP)
